Our source for the MIC values is ChEMBL document CHEMBL1129698, “Homo-N-nucleosides: Incorporation into oligonucleotides and antiviral activity” (1996).

The structures appear in SMILES notation. In brackets after ≈: the same amount, converted by molar mass.

Type in all cases: functional
The test system of test [1] is Human alphaherpesvirus 1. Kind of test: Compound was tested for the antiviral activity against herpes simplex virus-1 (HSV-1) KOS strain.
For test [2], the system named is Human alphaherpesvirus 1. The experiment in a line: Compound was tested for the antiviral activity against herpes simplex virus-1 thymidine kinase deficient (HSV-1 TK-) B2006 strain.
Test [3] has as its system Human alphaherpesvirus 1. The experiment in a line: Compound was tested for the antiviral activity against herpes simplex virus-1 thymidine kinase deficient (HSV-1 TK-) VMW 1837 strain.
Test [4] has as its system Human alphaherpesvirus 2. The experiment in a line: Compound was tested for the antiviral activity against herpes simplex virus-2 (HSV-2) G strain.
Test [5] in a line: Minimum cytotoxic concentration required to cause a microscopically detectable alteration of normal cell morphology.

Turning to `NC1=NC(=O)C2N=CN(C[C@H]3C[C@H](O)[C@@H](CO)O3)C2=N1` (stereo not given in full), the MIC in test [1] is 5 µg/mL (≈ 17.8 µM); in test [2], 12 µg/mL (≈ 42.7 µM); in test [3] it was 12 µg/mL (≈ 42.7 µM); in test [4], 5 µg/mL (≈ 17.8 µM); in test [5] it was above 400 µg/mL.
As to `Nc1ncnc2c1ncn2C[C@H]1C[C@H](O)[C@@H](CO)O1`, the MIC in test [1] is 20 µg/mL (≈ 75.4 µM); in test [2], 10 µg/mL (≈ 37.7 µM); in test [3], 8 µg/mL (≈ 30.2 µM); in test [4] it was 6 µg/mL (≈ 22.6 µM); in test [5] it was above 400 µg/mL.
The corresponding values for `Nc1nc2c(ncn2COCCO)c(=O)[nH]1` [ACYCLOVIR] are 0.02 µg/mL (≈ 0.0888 µM), 80 µg/mL (≈ 355 µM), 4 µg/mL (≈ 17.8 µM), 0.03 µg/mL (≈ 0.133 µM) and above 400 µg/mL.
For `O=c1[nH]c(=O)n([C@H]2C[C@H](O)[C@@H](CO)O2)cc1/C=C/Br` [BRIVUDINE], in that order: 0.007 µg/mL (≈ 0.021 µM), 20 µg/mL (≈ 60 µM), 30 µg/mL (≈ 90.1 µM), above 100 µg/mL and 200 µg/mL (≈ 600 µM).
